This passage reports IC50 results from patent US11180474B2 (BRISTOL-MYERS SQUIBB COMPANY, priority 2016, dated 2021).

Where only a bound is given, the exact number is not on record here.

The target of this test is T1, human TLR9 (Homo sapiens, UniProt Q9NR96).
T1 construct: host or cells: HEK-Blue cells
T1 sequence (Q9NR96 26-1032): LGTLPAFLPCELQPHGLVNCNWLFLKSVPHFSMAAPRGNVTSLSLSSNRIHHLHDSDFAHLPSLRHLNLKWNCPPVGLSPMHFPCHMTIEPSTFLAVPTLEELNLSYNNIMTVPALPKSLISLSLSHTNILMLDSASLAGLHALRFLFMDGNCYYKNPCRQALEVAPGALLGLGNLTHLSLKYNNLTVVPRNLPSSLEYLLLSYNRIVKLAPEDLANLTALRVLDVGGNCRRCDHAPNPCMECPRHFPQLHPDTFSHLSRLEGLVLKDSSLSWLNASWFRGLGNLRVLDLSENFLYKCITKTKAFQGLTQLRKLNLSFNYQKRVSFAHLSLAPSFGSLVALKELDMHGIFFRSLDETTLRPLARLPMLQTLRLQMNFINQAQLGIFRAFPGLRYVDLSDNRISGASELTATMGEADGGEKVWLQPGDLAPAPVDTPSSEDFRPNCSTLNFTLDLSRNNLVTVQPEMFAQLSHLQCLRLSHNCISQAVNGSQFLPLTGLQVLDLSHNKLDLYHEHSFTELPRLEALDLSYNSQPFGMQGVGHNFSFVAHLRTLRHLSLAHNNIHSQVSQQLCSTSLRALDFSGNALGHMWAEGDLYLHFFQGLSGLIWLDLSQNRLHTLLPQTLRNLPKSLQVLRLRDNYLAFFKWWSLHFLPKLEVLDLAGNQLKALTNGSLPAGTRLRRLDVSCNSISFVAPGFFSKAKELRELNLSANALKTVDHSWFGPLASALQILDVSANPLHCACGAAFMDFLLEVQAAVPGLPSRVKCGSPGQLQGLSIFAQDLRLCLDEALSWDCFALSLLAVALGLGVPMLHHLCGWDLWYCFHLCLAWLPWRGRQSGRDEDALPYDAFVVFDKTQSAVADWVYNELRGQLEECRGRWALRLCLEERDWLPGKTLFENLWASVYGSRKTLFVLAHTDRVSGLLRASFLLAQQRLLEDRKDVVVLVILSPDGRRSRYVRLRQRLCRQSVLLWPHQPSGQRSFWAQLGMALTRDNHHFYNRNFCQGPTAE
As to the kind of experiment: TLR9 inhibition reporter assay (HEK-Blue cells, SEAP reporter, ODN2006 stimulation). The settings on record: HEK-Blue cells overexpressing human TLR9, ODN2006 5 nM. The format is cell-based. Put shortly: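 Screening used HEK-Blue cells overexpressing one human TLR (7, 8 or 9) and an IFN-β minimal promoter–NF-κB/AP-1 SEAP construct. Stimulation lasted 22 h at 37 °C with receptor-specific agonist: gardiquimod, R848 or ODN2006 at 7.5 μM, 15.9 μM and 5 nM.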
On the technique in general: In a reporter assay the amount or activity of a reporter protein is the signal.
For orientation: IC50 means the concentration that gives 50% inhibition. Read a low IC50 as inhibition by little substance. `CCc1c(-c2ccc(OC)c(OC)c2)[nH]c2ccc(C3CCN(C(=O)CNc4nccs4)CC3)cc12` [Example 177, 1-(4-(2-(3,4-dimethoxyphenyl)-3-ethyl-1H-indol-5-yl)piperidin-1-yl)-2-(thiazol-2-ylamino)ethanone] had an IC50 of 3360 nM.
Regarding `CCc1c(-c2ccc(OC)c(OC)c2)[nH]c2ccc(C3CCN(CC(C)C(F)(F)F)CC3)cc12` (stereo not shown) [Example 180, 2-(3,4-dimethoxyphenyl)-3-ethyl-5-(1-(3,3,3-trifluoro-2-methylpropyl)piperidin-4-yl)-1H-indole], the IC50 was ≥ 50000 nM.
On to `COc1ccc(-c2[nH]c3ccc(C4CCN(C5CCN(CC(C)C)CC5)CC4)cc3c2C(C)C)cc1OC` [Example 199, 2-(3,4-dimethoxyphenyl)-5-(1′-isobutyl-[1,4′-bipiperidin]-4-yl)-3-isopropyl-1H-indole], for which the IC50 was 257 nM.
The same measure for `CCc1c(-c2ccc(OC)c(OC)c2)[nH]c2ccc(C3CCN(C(=O)CNCCO)CC3)cc12` [Example 159, 1-(4-(2-(3,4-dimethoxyphenyl)-3-ethyl-1H-indol-5-yl)piperidin-1-yl)-2-((2-hydroxyethyl)amino) ethan-1-one]: 3380 nM; for `CCc1c(-c2ccc(OC)c(OC)c2)[nH]c2ccc(C3CCN(C4CCN(Cc5ccsc5)CC4)CC3)cc12` [Example 142, 2-(3,4-dimethoxyphenyl)-3-ethyl-5-(1′-(thiophen-3-ylmethyl)-[1,4′-bipiperidin]-4-yl)-1H-indole]: 133 nM.
The same measure for `COc1ccc(-c2[nH]c3cc(C)c(C4CCN(C5CCN(C(C)C)CC5)CC4)cc3c2C)cc1OC` [Example 115, 2-(3,4-dimethoxyphenyl)-5-(1′-isopropyl-[1,4′-bipiperidin]-4-yl)-3,6-dimethyl-1H-indole-di-trifluoroacetic acid]: 77 nM; for `CCc1c(-c2ccc(OC)c(OC)c2)[nH]c2c(F)cc(C3CCN(C4CCN(CC(C)C)CC4)CC3)cc12` [Example 190, 2-(3,4-dimethoxyphenyl)-3-ethyl-7-fluoro-5-(1′-isobutyl-[1,4′-bipiperidin]-4-yl)-1H-indole]: 280 nM.
To `CNCCN1CCC(c2ccc3[nH]c(-c4ccc(OC)c(OC)c4)c(CC(C)C)c3c2)CC1` [Example 116, trifluoroacetic acid] belongs 830 nM; to `CCc1c(-c2ccc(OC)c(OC)c2)[nH]c2ccc(C3CCN(C(=O)c4ccncc4)CC3)cc12` [Example 183, (4-(2-(3,4-dimethoxyphenyl)-3-ethyl-1H-indol-5-yl)piperidin-1-yl)(pyridin-4-yl) methanone], 10200 nM; to `COc1ccc(-c2[nH]c3ccc(C4CCN(C5CCN(CC(C)C)CC5)CC4)cc3c2C)cc1OC` [Example 6, 2-(3,4-dimethoxyphenyl)-5-(1′-isobutyl-[1,4′-bipiperidin]-4-yl)-3-methyl-1H-indole], 221 nM.
Turning to `CCc1c(-c2ccc(OC)c(OC)c2)[nH]c2ccc(C3CCN(C4CCN(C)CC4)CC3)cc12` [Example 150, 2-(3,4-dimethoxyphenyl)-3-ethyl-5-(1′-methyl-[1,4′-bipiperidin]-4-yl)-1H-indole], the IC50 is 2340 nM.
To `CCc1c(-c2ccc(OC)c(OC)c2)[nH]c2ccc(C3CCN(C4CCN(Cc5cc(C)n[nH]5)CC4)CC3)cc12` [Example 131, 2-(3,4-dimethoxyphenyl)-3-ethyl-5-(1′-((3-methyl-1H-pyrazol-5-yl)methyl)-[1,4′-bipiperidin]-4-yl)-1H-indole] belongs 447 nM.
The same measure for `CCN(CC)C(=O)CCN(C)CC(=O)N1CCC(c2ccc3[nH]c(-c4ccc(OC)c(OC)c4)c(C(C)C)c3c2)CC1` [Example 204, 3-((2-(4-(2-(3,4-dimethoxyphenyl)-3-isopropyl-1H-indol-5-yl)piperidin-1-yl)-2-oxoethyl)(methyl)amino)-N,N-diethylpropanamide]: 2000 nM; for `CCc1c(-c2ccc(OC)c(OC)c2)[nH]c2ccc(C3CCN(C(=O)C4(C)CCNCC4)CC3)cc12` [Example 187, (4-(2-(3,4-dimethoxyphenyl)-3-ethyl-1H-indol-5-yl)piperidin-1-yl)(4-methylpiperidin-4-yl)methanone]: 1280 nM.
Molecule `CCc1c(-c2ccc(OC)c(OC)c2)[nH]c2ccc(C3CCN(C4CCN(Cc5c(C)noc5C)CC4)CC3)cc12` [Example 138, 4-((4-(2-(3,4-dimethoxyphenyl)-3-ethyl-1H-indol-5-yl)-[1,4′-bipiperidin]-1′-yl)methyl)-3,5-dimethylisoxazole] showed an IC50 of 1400 nM.
The same measure for `CCc1c(-c2ccc(OC)c(OC)c2)[nH]c2ccc(C3CCN(C4CCN(Cc5cc6ccccc6n5C)CC4)CC3)cc12` [Example 137, 2-(3,4-dimethoxyphenyl)-3-ethyl-5-(1′-((1-methyl-1H-indol-2-yl)methyl)-[1,4′-bipiperidin]-4-yl)-1H-indole]: 2600 nM; for `COc1ccc(-c2[nH]c3ccc(C4CCN(C5CCN(C6CCCC6)CC5)CC4)cc3c2C(C)C)cc1OC` [Example 202, 5-(1′-cyclopentyl-[1,4′-bipiperidin]-4-yl)-2-(3,4-dimethoxyphenyl)-3-isopropyl-1H-indole]: 340 nM.
The same measure for `CCc1c(-c2ccc(OC)c(OC)c2)[nH]c2cc(OC)c(C3CCN(C4CCN(C(C)C)CC4)CC3)cc12` [Example 192, 2-(3,4-dimethoxyphenyl)-3-ethyl-5-(1′-isopropyl-[1,4′-bipiperidin]-4-yl)-6-methoxy-1H-indole]: 260 nM; for `CCc1c(-c2ccc(OC)c(OC)c2)[nH]c2ccc(C3CCN(C4CCN(CC)CC4)CC3)cc12` [Example 149, 2-(3,4-dimethoxyphenyl)-3-ethyl-5-(1′-ethyl-[1,4′-bipiperidin]-4-yl)-1H-indole]: 152 nM; for `CCCc1c(-c2ccc(OC)c(OC)c2)[nH]c2ccc(C3CCN(C4CCN(CC(C)C)CC4)CC3)cc12` [Example 121, 2-(3,4-dimethoxyphenyl)-5-(1′-isobutyl-[1,4′-bipiperidin]-4-yl)-3-propyl-1H-indole-di-trifluoroacetic acid]: 378 nM.
Turning to `COc1ccc(-c2[nH]c3cc(C)c(C4CCNCC4)cc3c2C(C)C)cc1OC` [Example 205, 2-(3,4-dimethoxyphenyl)-3-isopropyl-6-methyl-5-(piperidin-4-yl)-1H-indole], the midpoint of inhibition, the IC50, lay at 966 nM.
In turn, `COc1ccc(-c2[nH]c3ccc(C4CCN(C5CCN(C(C)C)CC5)CC4)cc3c2C(C)C)cc1OC` [Example 201, 2-(3,4-dimethoxyphenyl)-3-isopropyl-5-(1′-isopropyl-[1,4′-bipiperidin]-4-yl)-1H-indole] had an IC50 of 650 nM.
With `CCc1c(-c2ccc(OC)c(OC)c2)[nH]c2ccc(C3CCN(C4CCN(Cc5ccccc5)CC4)CC3)cc12` [Example 147, 5-(1′-benzyl-[1,4′-bipiperidin]-4-yl)-2-(3,4-dimethoxyphenyl)-3-ethyl-1H-indole], it took 552 nM to reach half-maximal inhibition (IC50).
The same measure for `CCc1c(-c2ccc(OC)c(OC)c2)[nH]c2ccc(C3CCN(C4CCN(Cc5sccc5C)CC4)CC3)cc12` [Example 139, 2-(3,4-dimethoxyphenyl)-3-ethyl-5-(1′-((3-methylthiophen-2-yl)methyl)-[1,4′-bipiperidin]-4-yl)-1H-indole]: 444 nM; for `CCc1c(-c2ccc(OC)c(OC)c2)[nH]c2ccc(C3CCN(C4CCN(CC(C)C)CC4)CC3)cc12` [Example 123, 2-(3,4-dimethoxyphenyl)-3-ethyl-5-(1′-isobutyl-[1,4′-bipiperidin]-4-yl)-1H-indole-di-trifluoroacetic acid]: 170 nM.
